From patent US11826373B2, “Methods for treatment of diseases” (Galera Labs, LLC, priority 2011, dated 2023)

Columns and labels:
SD rats = assay: Rat GC4403 7-day intravenous toxicity; assay type: in vivo
Procedure: GC4403 was Studied in a GLP toxicology study in which it was administered in 26 mM sodium bicarbonate/0.9% sodium chloride to SD rats (10/sex/group) IV (slow bolus 1 mL/kg/minute) at dosages of 0, 1, 3 or 10 mg/kg/day for 7 days (On Day 1, 1/10 male rats receiving 10 mg/kg/day died). The dosage was therefore decreased to 8 mg/kg/day on Day 2 for all surviving animals for the remainder of the study, and the original 10 mg/kg/day group was re-designated as the 8 mg/kg/day group. On Day 4, two females from the 8 mg/kg/day group also died. Clinical signs immediately following dose administration of 8 mg/kg/day were twitching, labored breathing, body drop and prostration. At the scheduled 1-hour observation time, animals appeared normal. Males and females given 8 mg/kg/day had decreased body weight gains, which were accompanied by decreased food consumption in the males only. […] Surviving rats were sacrificed, and all rats sacrificed or found dead were necropsied.

Sprague-Dawley rats = assay: Rat GC4403 28-day IV toxicology; assay type: in vivo; settings: 28 days
Procedure: GC4403 was evaluated in a 28-day GLP study in Sprague-Dawley rats. GC4403 was administered to rats (10/sex/group) as slow-bolus IV injections at dosages of 0, 1, 3 or 6 mg/kg/day for 28 days. The control (0 dose) group received vehicle (26 mM sodium bicarbonate in normal saline). Evaluations for compound-related effects were based on clinical observations, body weight, food consumption, hematology and clinical chemistry parameters, functional observation battery, organ weights and gross and microscopic postmortem examinations. There were no compound-related changes in organ weights or macroscopic or microscopic pathology. Based on the results of this study, the NOTEL for GC4403, when administered to rats for 28 days as an IV infusion was 3 mg/kg/day.

Rats = assay: Rat GC4419 14-day IV study; assay type: in vivo; settings: 20 mg/kg, Days 1 or 2
Procedure: (§1) GC4419 was evaluated in a 14-day GLP study in rats. GC4419 was administered to rats (10/sex/group) as 15 minute IV injections at dosages of 0, 5, 10 or 20 (15) mg/kg/day for 14 days. The control group received vehicle (sodium citrate in normal saline). Due to mortality at 20 mg/kg/day, the high dose group was decreased to 15 mg/kg/day on Day 3. Evaluations for compound-related effects were based on clinical observations, body weight, food consumption, hematology and clinical chemistry parameters, functional observation battery, organ weights and gross and microscopic postmortem examinations. […] There were no compound-related changes in organ weights or macroscopic or microscopic pathology. Based on the results of this study the NOAEL for GC4419 when administered to rats for 14 days as a 15 minute IV infusion was 15 mg/kg/day.

[1] = Rat GC4419 14-day IV study; assay type: in vivo; settings: both sexes, rat, in vivo; rats, 15 minute IV infusion, 14 days
Procedure: as §1

[2] = system: radiation-induced oral mucositis; assay: Hamster model of radiation-induced oral mucositis; assay type: in vivo, Male Syrian golden hamsters; settings: all doses (3-30 mg/kg) administered prior to irradiation
Procedure: GC4403 and GC4419 were studied in a hamster model of oral mucositis (OM). Irradiation of the hamster cheek pouch induces lesions that are histologically similar to OM that which occurs clinically, and develop and resolve at a similar rate to radiation-induced OM in humans. […] The animals received 40 Gy radiation localized to the everted cheek pouch and were evaluated every second day for the development of inflammation at the radiation site. Inflammation was rated on a scale of 0 (normal) to 5 (total ulceration of pouch) by a trained observer, blinded to the treatment protocol.

healthy subjects = assay: Human Phase 1 single rising dose safety and tolerability of GC4419; assay type: in vivo
Procedure: (§2) A human clinical trial entitled, “A Double-Blind, Placebo-Controlled, Single Rising Dose Study to Evaluate the Safety and Tolerability and Determine the Pharmacokinetics of M40419 Administered as a I5-Minute Intravenous Infusion in Healthy Subjects,” was conducted on 54 subjects. This was a single center, randomized, placebo-controlled, sequential panel, single dose safety, tolerability, and pharmacokinetic study of GC4419 administered as a 75-mL IV infusion over 15 minutes in escalating doses of 10 mg, 15 mg, 22 mg, 33 mg, 50 mg, 75 mg, and 112 mg. The study consisted of two phases: the first phase was a dose escalation with six subjects (four active and two placebo) in each cohort to determine a Maximum Tolerated Dose (MTD); the second phase was a repeat of the MTD dose in 12 subjects (eight active drug and four placebo) to confirm the MTD or safety of highest dose tested. The study population was comprised of 54 healthy male and female subjects (36 males, 18 females) between the ages of 18 and 50 years considered eligible on the basis of inclusion and exclusion criteria. There were four active and two placebo subjects for each dose level in the escalating dose phase of the study, and eight active and four placebo subjects for the confirmation of MTD phase.
All subjects receiving a dose of study medication were evaluated for safety. The safety of the drug product was assessed based on: treatment-emergent adverse events (TEAEs), clinical laboratory evaluations, vital signs, 12-lead electrocardiograms (ECGs) and standard ECG parameters including PR, QRS, QT, and QTc intervals.

[3] = Human Phase 1 pharmacokinetics of GC4419; settings: both sexes, in vivo
Procedure: as §2
As part of the conduct of the Phase 1a clinical studies for GC4403 and GC4419 described in the Examples herein, plasma samples were collected for measuring the concentration of parent compounds (GC4403 and GC4419) after intravenous infusion. Table 3 illustrates the pharmacokinetic parameter, area under the curve (AUC), representing the total exposure of the subject to the drugs over time.

[4] = Activity toward hydrogen peroxide; assay type: biochemical
[5] = single intravenous infusion over 15 minutes, healthy subjects

Row | SMILES | mortality, females died (SD rats; 8 mg/kg/day group, Day 4) | mortality, male rats died (SD rats; 10 mg/kg/day, Day 1) | no observed toxic event level (NOTEL) (SD rats; rat, IV slow bolus injection, 7 days) | NOTEL (Sprague-Dawley rats) | mortality (Rats) | NOAEL at 14 days [1] | development of grade 3 or greater OM [2] | subjects who experienced at least one TEAE (healthy subjects; 30 of 36 subjects who received trial material, 10-112 mg) | tolerability of single doses up to 112 mg (healthy subjects; healthy subjects) | tolerability of single intravenous doses from 10 mg to 50 mg (healthy subjects; healthy subjects) | MTD initially defined in the dose escalation phase (healthy subjects; [5]) | maximum tolerated dose (MTD), final (healthy subjects; [5]) | AUC(0-inf) ([3]; 10 mg IV over 15 minutes) | AUC(0-inf) ([3]; 15 mg IV over 15 minutes) | AUC(0-inf) ([3]; 22 mg IV over 15 minutes) | AUC(0-inf) ([3]; 33 mg IV over 15 minutes) | AUC(0-inf) ([3]; 50 mg IV over 15 minutes) | AUC(0-inf) ([3]; 75 mg IV over 15 minutes) | AUC(0-inf) ([3]; 112 mg IV over 15 minutes) | activity toward hydrogen peroxide [4]
1 | [Cl][Mn-5]1234([Cl])[n+]5c6cccc5C[NH+]1[C@@H]1CCCC[C@H]1[NH+]2CC[NH+]3[C@@H]1CCCC[C@H]1[NH+]4C6 (some centres unmarked) [GC4403] | two | 1/10 | 3 mg/kg/day | 3 mg/kg/day | – | – | – | – | – | – | – | – | – | – | – | – | – | – | – | –
2 | [Cl][Mn-5]1234([Cl])[n+]5c6cccc5C[NH+]1[C@H]1CCCC[C@@H]1[NH+]2CC[NH+]3[C@H]1CCCC[C@@H]1[NH+]4C6 (some centres unmarked) [GC4419] | – | – | – | – | Several rats died | 15 mg/kg/day | prevented the development of grade 3 or greater OM | 83.3% | no serious adverse events | safe and well tolerated with no adverse events | 75 mg | 50 mg | 741 ng·h/mL | 1300 ng·h/mL | 2000 ng·h/mL | 3190 ng·h/mL | 4560 ng·h/mL | 6490 ng·h/mL | 10400 ng·h/mL | no detectable activity
